Here are results for ten compounds from ChEMBL document CHEMBL3351708, “Synthesis of new pyridazino[4,5-b]indol-4-ones and pyridazin-3(2H)-one analogs as DYRK1A inhibitors” (Bioorg Med Chem Lett, 2014).

The term IC50 denotes the concentration that inhibits the measured activity by half.

Assay [1] can be described thus: Antiproliferative activity against human HuH7 cells. To be noted: Huh-7. Type of assay: functional, cell-based.
For assay [2], the target named is Phosphatidylinositol 4,5-bisphosphate 3-kinase catalytic subunit alpha isoform (Homo sapiens, UniProt P42336). The assay is described as follows: Inhibition of p110alpha (unknown origin).
Assay [3] concerns the target Glycogen synthase kinase-3 (Homo sapiens, UniProt P49840+P49841). The assay is described as follows: Inhibition of GSK3alpha/beta (unknown origin). In kind it is protein assay.
Assay [4] in a line: Antiproliferative activity against human fibroblast cells. Type of assay: cell-based.
Assay [5] addresses Dual specificity tyrosine-phosphorylation-regulated kinase 1A (Homo sapiens, UniProt Q13627). Kind of assay: Inhibition of DYRK1A (unknown origin).
Assay [6] in a line: Antiproliferative activity against human HCT116 cells. In kind it is functional, cell-based. The note with it: HCT-116.
Assay [7] has as its target Cyclin-dependent kinase 5/CDK5 activator 1 (Homo sapiens, UniProt Q00535). Kind of assay: Inhibition of CDK5/p25 (unknown origin). In kind it is protein-complex assay.
Assay [8] relates to NCI-H727. Kind of assay: Antiproliferative activity against human NCI-H727 cells. In kind it is functional, cell-based.
Assay [9] in a line: Antiproliferative activity against human Caco2 cells. In kind it is functional, cell-based. The note with it: Caco-2.
Assay [10] deals with MDA-MB-231. The assay is described as follows: Antiproliferative activity against human MDA-MB-231 cells. Type of assay: functional, cell-based.
A short description of assay [11]: Antiproliferative activity against human PC3 cells. The note with it: PC-3. In kind it is functional, cell-based.
Assay [12] in a line: Antiproliferative activity against human HuH7 cells assessed as decrease in cell growth. In kind it is functional, Huh-7.
For assay [13], the system named is MDA-MB-231. The assay is described as follows: Antiproliferative activity against human MDA-MB-231 cells assessed as decrease in cell growth. Type of assay: functional.
The nature of assay [14]: Antiproliferative activity against human HCT116 cells assessed as decrease in cell growth. In kind it is functional, HCT-116.

Where only a bound is given, the exact number is not on record here.

Phosphatidylinositol 4,5-bisphosphate 3-kinase catalytic subunit alpha isoform, sequence (P42336 whole entry, canonical isoform): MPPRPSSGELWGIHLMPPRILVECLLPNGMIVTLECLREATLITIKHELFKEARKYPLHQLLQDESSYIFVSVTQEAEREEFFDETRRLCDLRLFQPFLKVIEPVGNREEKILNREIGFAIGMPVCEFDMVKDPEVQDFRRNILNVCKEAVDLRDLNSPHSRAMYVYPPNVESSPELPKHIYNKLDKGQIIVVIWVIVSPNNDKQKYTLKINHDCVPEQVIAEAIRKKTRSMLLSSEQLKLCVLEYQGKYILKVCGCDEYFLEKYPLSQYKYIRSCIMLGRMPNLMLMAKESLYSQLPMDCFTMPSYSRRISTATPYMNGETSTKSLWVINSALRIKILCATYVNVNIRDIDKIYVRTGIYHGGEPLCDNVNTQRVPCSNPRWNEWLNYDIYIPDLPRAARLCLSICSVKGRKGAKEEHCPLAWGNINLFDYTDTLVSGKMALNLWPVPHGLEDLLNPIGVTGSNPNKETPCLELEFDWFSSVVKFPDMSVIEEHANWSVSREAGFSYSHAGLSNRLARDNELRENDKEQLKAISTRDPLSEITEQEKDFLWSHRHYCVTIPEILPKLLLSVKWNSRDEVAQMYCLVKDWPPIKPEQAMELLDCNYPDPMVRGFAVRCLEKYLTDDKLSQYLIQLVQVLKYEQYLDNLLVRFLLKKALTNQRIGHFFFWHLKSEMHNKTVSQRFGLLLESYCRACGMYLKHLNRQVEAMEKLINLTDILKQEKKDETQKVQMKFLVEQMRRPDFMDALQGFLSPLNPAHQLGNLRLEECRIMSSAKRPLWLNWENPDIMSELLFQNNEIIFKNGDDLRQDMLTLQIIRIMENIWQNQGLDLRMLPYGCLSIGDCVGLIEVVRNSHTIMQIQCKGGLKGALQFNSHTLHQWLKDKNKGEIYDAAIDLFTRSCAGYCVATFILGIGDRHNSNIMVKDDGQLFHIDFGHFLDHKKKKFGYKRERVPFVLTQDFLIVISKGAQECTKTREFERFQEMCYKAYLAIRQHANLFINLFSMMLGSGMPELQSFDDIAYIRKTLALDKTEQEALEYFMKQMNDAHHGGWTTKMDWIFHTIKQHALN
Cyclin-dependent kinase 5/CDK5 activator 1, sequence (Q00535 whole entry): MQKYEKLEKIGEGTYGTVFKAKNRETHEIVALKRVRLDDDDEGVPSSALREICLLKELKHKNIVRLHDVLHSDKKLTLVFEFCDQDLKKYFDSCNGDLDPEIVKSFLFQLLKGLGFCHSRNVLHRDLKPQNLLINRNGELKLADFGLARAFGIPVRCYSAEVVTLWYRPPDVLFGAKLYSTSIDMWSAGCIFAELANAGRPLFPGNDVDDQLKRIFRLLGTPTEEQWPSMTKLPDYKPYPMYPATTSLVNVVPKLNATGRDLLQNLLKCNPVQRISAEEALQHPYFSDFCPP
Cyclin-dependent kinase 5/CDK5 activator 1, sequence (Q15078 whole entry, further chain): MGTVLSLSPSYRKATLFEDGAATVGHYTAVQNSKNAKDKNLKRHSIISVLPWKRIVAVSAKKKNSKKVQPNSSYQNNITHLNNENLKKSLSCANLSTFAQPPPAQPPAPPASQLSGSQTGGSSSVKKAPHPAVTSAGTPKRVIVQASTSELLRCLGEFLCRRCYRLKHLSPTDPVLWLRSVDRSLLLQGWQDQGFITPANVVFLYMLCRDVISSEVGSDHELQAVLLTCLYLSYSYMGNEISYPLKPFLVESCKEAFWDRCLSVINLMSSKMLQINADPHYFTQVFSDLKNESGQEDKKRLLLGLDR

With `COc1ccc2[nH]c3c(=O)[nH]nc(-c4ccc(C(F)(F)F)cc4)c3c2c1`, the concentration for half-maximal inhibition (IC50) in [1] is greater than 25 µM; in assay [2] it was 6.9 µM; in [3], greater than 10 µM; in assay [4], greater than 25 µM; in assay [5], greater than 10 µM; in assay [6], greater than 25 µM. Moreover, the IC50 in assay [7] is greater than 10 µM; in assay [8], greater than 25 µM; in assay [9], greater than 25 µM; in [10] it was greater than 25 µM; in assay [11], greater than 25 µM.

As for `COc1ccc2[nH]c3c(=O)[nH]nc(-c4ccccc4)c3c2c1`, the IC50 in assay [2] is greater than 10 µM; in assay [3] it was 1.3 µM; in assay [5] it was greater than 10 µM.

On to `COc1ccc2[nH]c3c(=O)[nH]nc(C)c3c2c1`, for which the IC50 was 3 µM in [1]; greater than 10 µM in assay [3]; 20 µM in assay [4]; 5 µM in assay [5]; 15 µM in [6]; greater than 10 µM in assay [7]. The IC50 in assay [9] is 8 µM; in [11], 7 µM.

For `COc1ccc(Nc2cc(-c3ccncc3)n[nH]c2=O)cc1`, the IC50 in assay [1] is greater than 25 µM; in assay [2], greater than 10 µM; in assay [3], 9.6 µM; in assay [4], greater than 25 µM; in [5], 0.61 µM; in [6], greater than 25 µM. For the same compound, the IC50 in assay [7] is greater than 10 µM; in assay [8], greater than 25 µM; in assay [9], greater than 25 µM; in assay [10] it was greater than 25 µM; in [11], greater than 25 µM.

Consider `COc1ccc(Nc2cc(-c3ccc(OC)cc3)n[nH]c2=O)cc1`, for which the IC50 in [3] is 2.5 µM; in assay [5], 5.1 µM; in assay [7], greater than 10 µM.

As for `COc1ccc(Nc2cc(-c3ccccc3)n[nH]c2=O)cc1`, the IC50 in assay [1] was greater than 25 µM; in assay [2], greater than 10 µM; in assay [3] it was greater than 10 µM; in assay [4], greater than 25 µM; in [5] it was greater than 10 µM; in assay [6], greater than 25 µM. In addition, the IC50 was greater than 10 µM in [7]; greater than 25 µM in [8]; greater than 25 µM in assay [9]; greater than 25 µM in assay [10]; greater than 25 µM in assay [11].

In the case of `COc1ccc2[nH]c3c(=O)[nH]nc(-c4ccco4)c3c2c1`, the IC50 is 0.25 µM in assay [1]; greater than 10 µM in [2]; greater than 10 µM in [3]; greater than 25 µM in assay [4]; 0.22 µM in [5]; 3 µM in [6]. Moreover, the IC50 in [7] was greater than 10 µM; in assay [8], greater than 25 µM; in assay [9], 0.6 µM; in assay [10], 0.3 µM; in assay [11], greater than 25 µM. Moreover, the “inhibition (INH)” value in [12], in assay [13] and in [14] was 50% in each case.

Take `COc1ccc(-c2n[nH]c(=O)c3[nH]c4ccc(OC)cc4c23)cc1`: the IC50 is greater than 25 µM in assay [1]; greater than 10 µM in [2]; 1.4 µM in [3]; greater than 25 µM in [4]; 1.5 µM in assay [5]; greater than 25 µM in [6]. The 50% inhibitory concentration (IC50) was greater than 10 µM in assay [7]; greater than 25 µM in assay [8]; greater than 25 µM in assay [9]; greater than 25 µM in assay [10]; greater than 25 µM in assay [11].

Take `COc1ccc(Nc2cc(C)n[nH]c2=O)cc1`: the IC50 in assay [3], in assay [5] and in [7] was greater than 10 µM in each case.

Consider `COc1ccc(Nc2cc(-c3ccco3)n[nH]c2=O)cc1`, for which the half-inhibitory concentration (IC50) is greater than 25 µM in assay [1]; greater than 10 µM in [2]; greater than 10 µM in assay [3]; greater than 25 µM in assay [4]; greater than 10 µM in [5]; greater than 25 µM in assay [6]. Moreover, the IC50 was greater than 10 µM in [7]; greater than 25 µM in assay [8]; greater than 25 µM in assay [9]; greater than 25 µM in assay [10]; greater than 25 µM in [11].
